{
  "source": "patent US4160829A",
  "about": "“Antibacterial 1,2,4-oxadiazolylacetamido cephalosporins” (Gist-Brocades N.V., priority 1972, dated 1979)",
  "test": "antiphlogistic activity",
  "data": [
    {"compound": "O=C(O)Cc1nc(Cc2ccccc2)no1", "note": "[Example 12A, 3-benzyl-1,2,4-oxadiazol-5-yl-acetic acid]", "values": [
      {"measurement": "antiphlogistic activity", "value": "antiphlogistic activity"}
    ]}
  ]
}
